The text below walks through data of PubChem BioAssay AID248 (DTP/NCI, 2004).

The assay has as its system L1210 leukemia ip in BDF1 mice, survival T/C. The assay can be described thus: NCI In Vivo Anticancer Drug Screen. Data for tumor model L1210 Leukemia (intraperitoneal) in B6D2F1 (BDF1) mice. Conditions: endpoint: mean survival time, higher = longer survival. In outline: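 Read-out is survival time, reported as the treated-group measurement over the vehicle-control measurement.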

Setting [1] is: dose: 100.0 mg/kg/injection, schedule: Q04DX002 (ip), vehicle: Klucel (hydroxypropylcellulose) (HPC).
[2] abbreviates: dose: 200.0 mg/kg/injection, schedule: Q04DX002 (ip), vehicle: Klucel (hydroxypropylcellulose) (HPC).
Where [3] appears, read: dose: 400.0 mg/kg/injection, schedule: Q04DX002 (ip), vehicle: Klucel (hydroxypropylcellulose) (HPC).
The mark [4] stands for this setting: dose: 100.0 mg/kg/injection, schedule: Q01DX001 (ip), vehicle: saline.
Setting [5] is: dose: 200.0 mg/kg/injection, schedule: Q01DX001 (ip), vehicle: saline.
The mark [6] stands for this setting: dose: 400.0 mg/kg/injection, schedule: Q01DX001 (ip), vehicle: saline.
Setting [7] is: dose: 400.0 mg/kg/injection, schedule: Q01DX009 (ip), vehicle: saline.
Where [8] appears, read: dose: 100.0 mg/kg/injection, schedule: Q04DX003 (ip), vehicle: other.
Setting [9] is: dose: 200.0 mg/kg/injection, schedule: Q04DX003 (ip), vehicle: other.
Setting [10] is: dose: 100.0 mg/kg/injection, schedule: Q01DX009 (ip), vehicle: saline with Tween-80.
[11] abbreviates: dose: 200.0 mg/kg/injection, schedule: Q01DX009 (ip), vehicle: saline with Tween-80.
[12] abbreviates: dose: 100.0 mg/kg/injection, schedule: Q04DX003 (ip), vehicle: Klucel (hydroxypropylcellulose) (HPC).
Setting [13] is: dose: 200.0 mg/kg/injection, schedule: Q04DX003 (ip), vehicle: Klucel (hydroxypropylcellulose) (HPC).
Setting [14] is: dose: 400.0 mg/kg/injection, schedule: Q04DX003 (ip), vehicle: Klucel (hydroxypropylcellulose) (HPC).
[15] abbreviates: dose: 50.0 mg/kg/injection, schedule: Q01DX009 (ip), vehicle: saline with Tween-80.

Where “and” joins values, the source holds several entries; their conditions need not be identical. Equal entries are not always repeated. Toxic doses and inconclusive results are not listed.

In the case of `COC(=O)N1C(c2ccccc2)(c2ccccc2)CS1(=O)=O`, the T/C by setting is: under setting [1], 112 % of control; under setting [2], 104 % of control; under setting [3], 93 % of control.

Take `CC(N)CC(N)CC(=O)O` (stereo not given): the T/C runs as follows: under setting [4], 96 % of control and 98 % of control; under setting [5], 98 % of control and 104 % of control; under setting [6], 91 % of control and 102 % of control.

Turning to `CCC(C(C)N1CC(=O)NC(=O)C1)N1CC(=O)NC(=O)C1` (stereo not given), the T/C is, setting by setting: (dose: 0.5 mg/kg/injection, schedule: Q01DX009 (ip), vehicle: Klucel (hydroxypropylcellulose) (HPC)) 154 % of control; (dose: 1.0 mg/kg/injection, schedule: Q04DX003 (ip), vehicle: Klucel (hydroxypropylcellulose) (HPC)) 120 % of control; (dose: 2.0 mg/kg/injection, schedule: Q01DX009 (ip), vehicle: Klucel (hydroxypropylcellulose) (HPC)) 102 % of control; (dose: 2.0 mg/kg/injection, schedule: Q04DX003 (oral), vehicle: Klucel (hydroxypropylcellulose) (HPC)) 123 % of control; (dose: 4.0 mg/kg/injection, schedule: Q01DX009 (ip), vehicle: Klucel (hydroxypropylcellulose) (HPC)) 91 % of control; (dose: 4.0 mg/kg/injection, schedule: Q04DX003 (ip), vehicle: Klucel (hydroxypropylcellulose) (HPC)) 203 % of control. The T/C runs as follows: (dose: 8.0 mg/kg/injection, schedule: Q04DX003 (ip), vehicle: Klucel (hydroxypropylcellulose) (HPC)) 219 % of control; (dose: 8.0 mg/kg/injection, schedule: Q04DX003 (oral), vehicle: Klucel (hydroxypropylcellulose) (HPC)) 161 % of control; (dose: 16.0 mg/kg/injection, schedule: Q04DX003 (ip), vehicle: Klucel (hydroxypropylcellulose) (HPC)) 96 % of control; (dose: 32.0 mg/kg/injection, schedule: Q04DX003 (ip), vehicle: Klucel (hydroxypropylcellulose) (HPC)) 119 % of control; (dose: 64.0 mg/kg/injection, schedule: Q04DX003 (oral), vehicle: Klucel (hydroxypropylcellulose) (HPC)) 93 % of control.

In the case of `CN(C(=O)OCc1ccccc1)c1ccc(C(=O)NC(CC(=O)O)CC(=O)O)cc1`, the T/C is, setting by setting: under setting [4], 88 % of control; under setting [5], 96 % of control; under setting [6], 90 % of control.

In the case of `O=C(O)c1ccccc1SCCO`, the T/C runs as follows: (dose: 100.0 mg/kg/injection, schedule: Q01DX009 (ip), vehicle: saline) 109 % of control; (dose: 200.0 mg/kg/injection, schedule: Q01DX009 (ip), vehicle: saline) 94 % of control; under setting [7], 95 % of control.

As to `CC(C)SCC(NC(=O)/C=C/c1ccccc1)C(=O)O` (stereo not given), the T/C runs as follows: (dose: 50.0 mg/kg/injection, schedule: Q04DX003 (ip), vehicle: other) 97 % of control; under setting [8], 101 % of control; under setting [9], 95 % of control.

Turning to `CC(C)(C)OC(=O)NC(Cc1ccccc1)C(=O)O` (stereo not given), the T/C is 100 % of control under setting [4], 94 % of control under setting [5] and 93 % of control under setting [6].

With `CCC[CH2][Sn]1([CH2]CCC)[O]C(=O)c2cccc([N+](=O)[O-])c2C(=O)[O]1`, under setting [4], the T/C is 117 % of control.

On to `C=C(Br)CNS(C)(=O)=O`, for which the T/C (dose: 6.25 mg/kg/injection, schedule: Q01DX009 (ip), vehicle: saline) is 106 % of control; the T/C (dose: 12.5 mg/kg/injection, schedule: Q01DX009 (ip), vehicle: saline) was 95 % of control; the T/C (dose: 12.5 mg/kg/injection, schedule: Q04DX003 (ip), vehicle: saline) is 98 % of control; the T/C (dose: 25.0 mg/kg/injection, schedule: Q01DX009 (ip), vehicle: saline) was 96 % of control; the T/C (dose: 25.0 mg/kg/injection, schedule: Q04DX003 (ip), vehicle: saline) was 104 % of control.

For the molecule `CCCCC[CH2][Sn]([CH2]C)([CH2]C)[CH2]C`, the T/C was 93 % of control (dose: 100.0 mg/kg/injection, schedule: Q04DX002 (ip), vehicle: saline) and 93 % of control (dose: 200.0 mg/kg/injection, schedule: Q04DX002 (ip), vehicle: saline).

Regarding `CN(C)N=Nc1cc(Cl)cc(C(N)=O)c1Cl`, the T/C (dose: 100.0 mg/kg/injection, schedule: Q01DX001 (ip), vehicle: saline with Tween-80) was 106 % of control; the T/C under setting [10] is 103 % of control; the T/C (dose: 200.0 mg/kg/injection, schedule: Q01DX001 (ip), vehicle: saline with Tween-80) is 101 % of control; the T/C under setting [11] is 121 % of control; the T/C (dose: 400.0 mg/kg/injection, schedule: Q01DX001 (ip), vehicle: saline with Tween-80) is 119 % of control.

As to `O=C1CCSc2c1ccc1ccccc21`, the T/C under setting [4] is 87 % of control.

In the case of `CN(C)C(=S)SCNC(=S)NCSC(=S)N(C)C`, the T/C under setting [12] was 106 % of control, the T/C under setting [13] is 96 % of control and the T/C under setting [14] was 98 % of control.

For `O=C1NC(C(=O)O)CC1O` (stereo not given), the T/C was 100 % of control (dose: 50.0 mg/kg/injection, schedule: Q01DX001 (ip), vehicle: saline); 95 % of control and 97 % of control under setting [4]; 98 % of control and 88 % of control under setting [5]; 97 % of control under setting [6].

With `O=[N+]([O-])c1cc(C(F)(F)F)cc([N+](=O)[O-])c1N/N=C/c1ccc(F)cc1`, the T/C reads like this: (dose: 25.0 mg/kg/injection, schedule: Q01DX009 (ip), vehicle: saline with Tween-80) 87 % of control; under setting [15], 94 % of control; under setting [10], 92 % of control and 89 % of control; (dose: 400.0 mg/kg/injection, schedule: Q01DX009 (ip), vehicle: saline with Tween-80) 86 % of control.

`CC1(C(Cl)Cl)C=CC(=O)C=C1`: the T/C by setting is: (dose: 100.0 mg/kg/injection, schedule: Q01DX009 (ip), vehicle: Klucel (hydroxypropylcellulose) (HPC)) 90 % of control; under setting [8], 103 % of control; (dose: 200.0 mg/kg/injection, schedule: Q01DX009 (ip), vehicle: Klucel (hydroxypropylcellulose) (HPC)) 87 % of control; under setting [9], 111 % of control; (dose: 400.0 mg/kg/injection, schedule: Q01DX009 (ip), vehicle: Klucel (hydroxypropylcellulose) (HPC)) 106 % of control; (dose: 400.0 mg/kg/injection, schedule: Q04DX003 (ip), vehicle: other) 95 % of control.

With `CCc1ccc2ccc3c4ccccc4ccc3[n+]2c1`, the T/C is, setting by setting: (dose: 10.0 mg/kg/injection, schedule: Q01DX001 (ip), vehicle: saline) 93 % of control; (dose: 20.0 mg/kg/injection, schedule: Q01DX001 (ip), vehicle: saline) 90 % of control; (dose: 40.0 mg/kg/injection, schedule: Q01DX001 (ip), vehicle: saline) 94 % of control.

Take `COC(=O)/C(=C/c1ccccc1)CBr`: the T/C under setting [15] was 94 % of control and the T/C under setting [10] was 102 % of control.

Consider `COc1cc2nn(-c3ccccc3N)nc2cc1OC`, for which the T/C reads like this: under setting [15], 98 % of control; under setting [10], 90 % of control; under setting [11], 102 % of control.

Turning to `C/C(=C/c1c(C)c([N+](=O)[O-])c(C)c(C)c1[N+](=O)[O-])C(=O)O`, the T/C by setting is: (dose: 100.0 mg/kg/injection, schedule: Q01DX001 (ip), vehicle: Klucel (hydroxypropylcellulose) (HPC)) 100 % of control; under setting [12], 114 % of control; (dose: 200.0 mg/kg/injection, schedule: Q01DX001 (ip), vehicle: Klucel (hydroxypropylcellulose) (HPC)) 91 % of control; under setting [13], 97 % of control; (dose: 400.0 mg/kg/injection, schedule: Q01DX001 (ip), vehicle: Klucel (hydroxypropylcellulose) (HPC)) 107 % of control; under setting [14], 101 % of control.

With `O=C(O)C1CSC2(CCCCC2)N1` (stereo not given), the T/C is, setting by setting: (dose: 100.0 mg/kg/injection, schedule: Q04DX003 (ip), vehicle: saline) 93 % of control; (dose: 200.0 mg/kg/injection, schedule: Q04DX003 (ip), vehicle: saline) 98 % of control; (dose: 400.0 mg/kg/injection, schedule: Q04DX003 (ip), vehicle: saline) 89 % of control.

`NC(CSC(c1ccccc1)(c1ccccc1)c1ccc(CO)cc1)C(=O)O` (stereo not given): the T/C under setting [7] was 150 % of control and 157 % of control; the T/C (dose: 600.0 mg/kg/injection, schedule: Q01DX009 (ip), vehicle: saline) was 168 % of control.

Regarding `[Cl][Pd][Cl].[NH-]C(c1ccccc1)C([NH-])c1ccccc1` (stereo not given), the T/C was 93 % of control and 97 % of control under setting [1]; 90 % of control and 118 % of control under setting [2]; 88 % of control and 97 % of control under setting [3].

For the molecule `COC1=C(c2ccccc2)C(=O)CCc2ccccc21`, the T/C was 97 % of control under setting [12], 106 % of control under setting [13] and 97 % of control under setting [14].
